Reference: US9322066B2, “Predictors for cancer treatment” (priority 2011, dated 2016)

Test system: relapsed or refractory, rituximab-naive or -sensitive follicular B-cell NHL
Experiment: Time to next anti-lymphoma therapy, Vc-R vs rituximab study, by biomarker
Assay type: in vivo, human
Set-up: Median, Time to Next Anti-Lymphoma Therapy / Time to Next Anti-Lymphoma Therapy, Median: unit not given here
Description: Non-Hodgkin lymphoma (NHL) encompasses several unique malignant lymphoid disease entities that vary in clinical behavior, morphologic appearance, immunologic, and molecular phenotype. […] A randomized, open-label, active-controlled, multicenter, multinational, prospective study to compare the efficacy and safety of the combination of bortezomib and rituximab (Vc-R) to single-agent rituximab in subjects who have relapsed or refractory, rituximab-naive or -sensitive follicular B-cell NHL was performed.
Subjects were centrally randomized to Treatment Groups A (Vc-R) or B (rituximab) in a 1:1 ratio taking into account the following stratification factors: • Follicular Lymphoma International Prognostic Index (FLIPI) score (low [0 or 1 factor], intermediate [2 factors], high [≧3 factors]); • Prior rituximab therapy (yes, no); • Time since last dose of anti-lymphoma therapy (≦1 year, >1 year); • Region (United States/Canada, European Union, Rest of World).
The following clinical endpoints were included in the analysis within each treatment group and an overall comparison was made with the biomarker-related endpoints: Progression-free survival, defined as the interval between the date of randomization and the date of progressive disease (PD) or death, whichever is first reported in the ITT population; overall survival; overall response rate (complete response [CR]+CR unconfirmed [CRu]+partial response [PR]); overall CR rate (CR+CRu); duration of response; time to next anti-lymphoma therapy; and treatment free interval.

[1] = 20S % NUCLEAR STAINING: 0-20, Female, IRC Review
[2] = 20S % NUCLEAR STAINING: 60-70, Male, IRC Review
[3] = 20S % NUCLEAR STAINING: 60-70, Prior Rituximab Therapy, IRC Review
[4] = 20S INTENSITY CYTOPLASMIC SIGNAL: ≧3+, European Union, IRC Review
[5] = 20S INTENSITY CYTOPLASMIC SIGNAL: ≧3+, Male, IRC Review
[6] = BCL2/A43G: MND, subgroup White, IRC review
[7] = BCL2/C.-11C > T: MND, subgroup White, IRC review
[8] = BCL2/E29K: MND, subgroup White, IRC review
[9] = BCL2/P46L: MND, subgroup White, IRC review
[10] = BCL2/P46S: MND, subgroup White, IRC review
[11] = BCL2/P59L: MND, subgroup White, IRC review
[12] = BCL2/P59S: MND, subgroup White, IRC review
[13] = BCL2/Q52P: MND, subgroup White, IRC review
[14] = BCL2/R106H: MND, subgroup White, IRC review
[15] = CD68 OVERALL POSITIVE: 0-25, 2 Prior Lines of Therapy, IRC Review
[16] = CD68 OVERALL POSITIVE: 0-25, >1 year since last anti-lymphoma treatment, IRC Review
[17] = CD68 OVERALL POSITIVE: 0-25, Ann Arbor Stage III, IRC Review
[18] = CD68 OVERALL POSITIVE: 0-25, Ann Arbor Stage IV, IRC Review
[19] = CD68 OVERALL POSITIVE: 0-25, European Union, IRC Review
[20] = CD68 OVERALL POSITIVE: 0-25, Female, IRC Review
[21] = CD68 OVERALL POSITIVE: 0-25, Intermediate FLIPI Score, IRC Review
[22] = CD68 OVERALL POSITIVE: 0-25, Low FLIPI Score, IRC Review
[23] = CD68 OVERALL POSITIVE: 0-25, Male, IRC Review
[24] = CD68 OVERALL POSITIVE: 0-25, No High Tumor Burden, IRC Review
[25] = CD68 OVERALL POSITIVE: 0-25, No Prior Rituximab Therapy, IRC Review
[26] = CD68 OVERALL POSITIVE: 0-25, No Subgroup, IRC Review
[27] = CD68 OVERALL POSITIVE: 0-25, Prior Rituximab Therapy, IRC Review
[28] = CD68 OVERALL POSITIVE: 0-25, White, IRC Review
[29] = CD68 OVERALL POSITIVE: 0-25, ≦65 years old, IRC Review
[30] = CD68 OVERALL POSITIVE: >75, Male, IRC Review
[31] = CD68 POSITIVE FOLLICULAR: 0-25, >1 year since last anti-lymphoma treatment, IRC Review
[32] = CD68 POSITIVE FOLLICULAR: 0-25, Ann Arbor Stage III, IRC Review
[33] = CD68 POSITIVE FOLLICULAR: 0-25, Asian, IRC Review
[34] = CD68 POSITIVE FOLLICULAR: 0-25, Female, IRC Review
[35] = CD68 POSITIVE FOLLICULAR: 0-25, Intermediate FLIPI Score, IRC Review
[36] = CD68 POSITIVE FOLLICULAR: 0-25, No High Tumor Burden, IRC Review
[37] = CD68 POSITIVE FOLLICULAR: 0-25, No Prior Rituximab Therapy, IRC Review
[38] = CD68 POSITIVE FOLLICULAR: 0-25, No Subgroup, IRC Review
[39] = CD68 POSITIVE FOLLICULAR: 0-25, White, IRC Review
[40] = CD68 POSITIVE FOLLICULAR: 0-25, ≦65 years old, IRC Review
[41] = CD68 POSITIVE PERIFOLLICULAR: 0-25, 2 Prior Lines of Therapy, IRC Review
[42] = CD68 POSITIVE PERIFOLLICULAR: 0-25, >1 year since last anti-lymphoma treatment, IRC Review
[43] = CD68 POSITIVE PERIFOLLICULAR: 0-25, Ann Arbor Stage IV, IRC Review
[44] = CD68 POSITIVE PERIFOLLICULAR: 0-25, Female, IRC Review
[45] = CD68 POSITIVE PERIFOLLICULAR: 0-25, Intermediate FLIPI Score, IRC Review
[46] = CD68 POSITIVE PERIFOLLICULAR: 0-25, No High Tumor Burden, IRC Review
[47] = CD68 POSITIVE PERIFOLLICULAR: 0-25, No Prior Rituximab Therapy, IRC Review
[48] = CD68 POSITIVE PERIFOLLICULAR: 0-25, No Subgroup, IRC Review

rituximab
Evt/N, Time to Next Anti-Lymphoma Therapy [1]: 35/61 | Median, Time to Next Anti-Lymphoma Therapy [1]: 568 | Evt/N, Time to Next Anti-Lymphoma Therapy [2]: 14/16 | Median, Time to Next Anti-Lymphoma Therapy [2]: 247 | Evt/N, Time to Next Anti-Lymphoma Therapy [3]: 17/21 | Median, Time to Next Anti-Lymphoma Therapy [3]: 343 | Evt/N, Time to Next Anti-Lymphoma Therapy [4]: 34/52 | Median, Time to Next Anti-Lymphoma Therapy [4]: 533 | Evt/N, Time to Next Anti-Lymphoma Therapy [5]: 20/27 | Median, Time to Next Anti-Lymphoma Therapy [5]: 421 | Median, Time to Next Anti-Lymphoma Therapy (BCL2/A43G: MND, subgroup Ann Arbor Stage IV, IRC review): 450 | Evt/N, Time to Next Anti-Lymphoma Therapy [6]: 89/140 | Median, Time to Next Anti-Lymphoma Therapy [6]: 504 | Median, Time to Next Anti-Lymphoma Therapy (BCL2/C.-11C > T: MND, subgroup Ann Arbor Stage IV, IRC review): 450 | Evt/N, Time to Next Anti-Lymphoma Therapy [7]: 110/168 | Median, Time to Next Anti-Lymphoma Therapy [7]: 504 | Evt/N, Time to Next Anti-Lymphoma Therapy [8]: 83/129 | Median, Time to Next Anti-Lymphoma Therapy [8]: 485 | Evt/N, Time to Next Anti-Lymphoma Therapy [9]: 74/117 | Median, Time to Next Anti-Lymphoma Therapy [9]: 505 | Evt/N, Time to Next Anti-Lymphoma Therapy [10]: 81/130 | Median, Time to Next Anti-Lymphoma Therapy [10]: 505 | Evt/N, Time to Next Anti-Lymphoma Therapy [11]: 80/129 | Median, Time to Next Anti-Lymphoma Therapy [11]: 533 | Evt/N, Time to Next Anti-Lymphoma Therapy [12]: 81/128 | Median, Time to Next Anti-Lymphoma Therapy [12]: 505 | Evt/N, Time to Next Anti-Lymphoma Therapy [13]: 85/135 | Median, Time to Next Anti-Lymphoma Therapy [13]: 504 | Evt/N, Time to Next Anti-Lymphoma Therapy [14]: 93/140 | Median, Time to Next Anti-Lymphoma Therapy [14]: 501 | time to next treatment interval (Biomarker positive (PSMB1 P11A heterozygote and CD68 Low)): 14.8 mo | Evt/N, Time to Next Anti-Lymphoma Therapy [15]: 6/8 | Median, Time to Next Anti-Lymphoma Therapy [15]: 204 | Evt/N, Time to Next Anti-Lymphoma Therapy [16]: 17/26 | Median, Time to Next Anti-Lymphoma Therapy [16]: 409 | Evt/N, Time to Next Anti-Lymphoma Therapy [17]: 12/16 | Median, Time to Next Anti-Lymphoma Therapy [17]: 276 | Evt/N, Time to Next Anti-Lymphoma Therapy [18]: 15/22 | Median, Time to Next Anti-Lymphoma Therapy [18]: 434 | Evt/N, Time to Next Anti-Lymphoma Therapy [19]: 14/22 | Median, Time to Next Anti-Lymphoma Therapy [19]: 374 | Evt/N, Time to Next Anti-Lymphoma Therapy [20]: 16/26 | Median, Time to Next Anti-Lymphoma Therapy [20]: 434 | Evt/N, Time to Next Anti-Lymphoma Therapy [21]: 7/11 | Median, Time to Next Anti-Lymphoma Therapy [21]: 485 | Evt/N, Time to Next Anti-Lymphoma Therapy [22]: 8/10 | Median, Time to Next Anti-Lymphoma Therapy [22]: 422 | Evt/N, Time to Next Anti-Lymphoma Therapy [23]: 14/18 | Median, Time to Next Anti-Lymphoma Therapy [23]: 251 | Evt/N, Time to Next Anti-Lymphoma Therapy [24]: 8/14 | Median, Time to Next Anti-Lymphoma Therapy [24]: 552 | Evt/N, Time to Next Anti-Lymphoma Therapy [25]: 12/19 | Median, Time to Next Anti-Lymphoma Therapy [25]: 533 | Evt/N, Time to Next Anti-Lymphoma Therapy [26]: 30/44 | Median, Time to Next Anti-Lymphoma Therapy [26]: 409 | Evt/N, Time to Next Anti-Lymphoma Therapy [27]: 18/25 | Median, Time to Next Anti-Lymphoma Therapy [27]: 235 | Evt/N, Time to Next Anti-Lymphoma Therapy [28]: 24/35 | Median, Time to Next Anti-Lymphoma Therapy [28]: 409 | Evt/N, Time to Next Anti-Lymphoma Therapy [29]: 24/34 | Median, Time to Next Anti-Lymphoma Therapy [29]: 374 | Evt/N, Time to Next Anti-Lymphoma Therapy (CD68 OVERALL POSITIVE: 51-75, No High Tumor Burden, IRC Review): 10/25 | Evt/N, Time to Next Anti-Lymphoma Therapy [30]: 8/9 | Median, Time to Next Anti-Lymphoma Therapy [30]: 427 | Evt/N, Time to Next Anti-Lymphoma Therapy [31]: 22/34 | Median, Time to Next Anti-Lymphoma Therapy [31]: 550 | Evt/N, Time to Next Anti-Lymphoma Therapy [32]: 19/24 | Median, Time to Next Anti-Lymphoma Therapy [32]: 332 | Evt/N, Time to Next Anti-Lymphoma Therapy [33]: 5/6 | Median, Time to Next Anti-Lymphoma Therapy [33]: 220 | Evt/N, Time to Next Anti-Lymphoma Therapy [34]: 23/37 | Median, Time to Next Anti-Lymphoma Therapy [34]: 462 | Evt/N, Time to Next Anti-Lymphoma Therapy [35]: 14/20 | Median, Time to Next Anti-Lymphoma Therapy [35]: 421 | Evt/N, Time to Next Anti-Lymphoma Therapy [36]: 14/22 | Median, Time to Next Anti-Lymphoma Therapy [36]: 573 | Evt/N, Time to Next Anti-Lymphoma Therapy [37]: 23/36 | Median, Time to Next Anti-Lymphoma Therapy [37]: 485 | Evt/N, Time to Next Anti-Lymphoma Therapy [38]: 40/60 | Median, Time to Next Anti-Lymphoma Therapy [38]: 462 | Evt/N, Time to Next Anti-Lymphoma Therapy [39]: 32/48 | Median, Time to Next Anti-Lymphoma Therapy [39]: 462 | Evt/N, Time to Next Anti-Lymphoma Therapy [40]: 33/46 | Median, Time to Next Anti-Lymphoma Therapy [40]: 332 | Evt/N, Time to Next Anti-Lymphoma Therapy [41]: 6/8 | Median, Time to Next Anti-Lymphoma Therapy [41]: 171 | Evt/N, Time to Next Anti-Lymphoma Therapy [42]: 15/24 | Median, Time to Next Anti-Lymphoma Therapy [42]: 533 | Evt/N, Time to Next Anti-Lymphoma Therapy [43]: 11/15 | Median, Time to Next Anti-Lymphoma Therapy [43]: 374 | Evt/N, Time to Next Anti-Lymphoma Therapy [44]: 19/28 | Median, Time to Next Anti-Lymphoma Therapy [44]: 374 | Evt/N, Time to Next Anti-Lymphoma Therapy [45]: 7/13 | Median, Time to Next Anti-Lymphoma Therapy [45]: 501 | Evt/N, Time to Next Anti-Lymphoma Therapy [46]: 8/13 | Median, Time to Next Anti-Lymphoma Therapy [46]: 501 | Evt/N, Time to Next Anti-Lymphoma Therapy [47]: 12/18 | Median, Time to Next Anti-Lymphoma Therapy [47]: 533 | Evt/N, Time to Next Anti-Lymphoma Therapy [48]: 26/39 | Median, Time to Next Anti-Lymphoma Therapy [48]: 374
